Tests used:
KG-1 cells = assay: Anti-proliferation CTG assay, KG-1; type: cell-based, human; conditions: KG1 parental or control shRNA cells, 0.0001 μM to 1 μM, two days
Method: The effect of depletion of GSPT1 on the anti-proliferative effect of compound Compound D and Compound E was also determined in human acute myelogenous leukemia cell lines AML and KG1. […]

MOLM-13 cells = assay: Anti-proliferation CTG assay, MOLM-13; type: cell-based, human; conditions: 48 hours
Method: (§1) A plethora of AML cell lines were treated with serial dilutions of Compound D. IC50 value of the anti-proliferation effect of Compound D (as determined in 72-hour CTG assays) in each cell line is summarized in Table 1.
(§2) The effect of overexpression of GSPT1 on the anti-proliferative effect of Compound D and Compound E was determined in human histiocytic lymphoma cell line U937 and human leukemia cell line MOLM13. Treatment compounds (e.g., Compound D or Compound E) were titrated from 0.001 μM to 10 μM. Cell proliferation was measured by CellTiter-Glo cell viability assay at 48 hours after treatment. […] However, when exogenous GSPT1 was overproduced via the EF1α promoter, as shown in FIGS. 5A-5D, the anti-proliferative effect of Compound D and Compound E reduced.

U-937 cells = assay: Anti-proliferation CTG assay, U-937; type: cell-based, human; conditions: 48 hours
Method: as §1, §2

OCI-AML3 cells = assay: Anti-proliferation CTG assay, OCI-AML3; type: cell-based, human; conditions: AML3 parental or control shRNA cells, 0.0001 μM to 1 μM, two days
Method: as §1
The effect of depletion of GSPT1 on the anti-proliferative effect of compound Compound D and Compound E was also determined in human acute myelogenous leukemia cell lines AML and KG1. Cells were infected with lentiviral vectors expressing control shRNA, shGSPT1-1 or shGSPT1-3 for 7 days and then treated with DMSO, Compound D or Compound E in a titration from 0.0001 μM to 1 μM. Two days after treatment, cell proliferation was measured by CellTiter-Glo cell viability. […] Both shGSPT1-1 and shGSPT1-3 reduced the expression of GSPT1, eRF1, and slightly of CRBN.

[1] = system: ATF3, DDIT3, cleaved Caspases, cleaved PARP; assay: UPR and apoptosis pathway components in KG1 cells; type: cell-based, human; conditions: KG1, 200 nM, 8 or 12 hours
Method: Cells were treated with DMSO alone or 200 nM Compound D. After 2, 4, or 6 hours, the expression levels of various cellular components along UPR or apoptosis pathways were measured. […] Reduction of BIP indicates UPR.
(§3) Cells were treated with DMSO alone, 200 nM Compound D, or 200 nM Compound E. After 8 or 12 hours, the expression levels of various cellular components along UPR or apoptosis pathways were measured. […] Reduction of BIP indicates UPR.
(§4) To further investigate the timeline of cellular events upon Compound D treatment, KG1 cells were treated with DMSO alone or 200 nM Compound D. At 2, 4, 6, 8, 10, or 12 hours, the expression levels of various cellular components along ATF4 or apoptosis pathways were measured.

GSPT1 [2] = target: T1, GSPT1 (Homo sapiens, UniProt P15170+Q96SW2); assay: GSPT1 protein reduction, western analysis, normal PBMCs; conditions: PBMC, 1 nM to 1000 nM, 20 hours
Method: PBMC were treated with 1 nM, 10 nM, 100 nM, or 1000 nM of Compound D or Compound E for 20 hours.

GSPT1 [3] = target: T1, GSPT1; assay: GSPT1 protein reduction, western analysis, KG-1; type: cell-based; set-up: reduction in GSPT1 protein level was evaluated in human normal PBMCs; endogenous in cells; host or cells: primary PBMCs from normal donors (ID 4328, 4379) and AML patients (ID 11SH, 09P6); conditions: KG1, 200 nM, 8 or 12 hours
Method: as §3, §4
In two sensitive AML cell lines, KG-1 and HL-60, both a concentration-dependent decrease in GSPT1 protein and an increase in RNA expression of ATF3, CHOP, and SRSF3 and SRSF6 NMD transcripts at the 8-hour time point were compared to caspase 3/7 activation (apoptosis) at the 24-hour (FIG. 30A [KG-1]; FIG. 30C [HL-60]) and 48-hour (FIG. 30B [KG-1]; FIG. 30D [HL-60]) time points.
The reduction in the level of GSPT1 protein was concentration-dependent over the range of 3 to 1000 nM in eight of the nine AML cell lines and over the range of 300 to 1000 nM in one relatively insensitive AML cell line. The time course of the reduction in GSPT1 by Compound D also was studied for up to 48 hours. The progressive degradation of GSPT1 over the course of 1 to 20 hours was evident in the presence of all concentrations of Compound D studied from 3 to 300 nM in HNT-34, HL-60, and ML-2 cells, with little GSPT1 remaining by 20 hours at 100 or 300 nM Compound D in HNT-34 or HL-60 cells (FIG. 34 and FIG. 35C). Time-dependent reduction in GSPT1 was also observed in KG-1 and OCI-AML2 cells at 3 to 1000 nM Compound D, with little GSPT1 remaining in KG-1 cells at 100 to 300 nM at 24 hours or in OCI-AML2 cells at 300 and 1000 nM at 24 hours (FIG. 35D). Loss of GSPT1 occurred more slowly in Kasumi-1, AML-193, and F36-P cells.
Compound D-mediated GSPT1 reduction at 8 hours was compared to induction of caspase 3/7 activation (apoptosis) at 12, 24, and 48 hour time points in these nine AML cell lines. […] A positive association (r^2=0.50; R=0.71; p value=4.86E-002) was observed between the level of GSPT1 reduction and apoptosis induction in the AML cell panel (FIG. 36), with >90% GSPT1 reduction correlating with induction of apoptosis.

[4] = system: translational readthrough; assay: AML2 readthrough assay (Fluc/Nluc-G36A reporter), OCI-AML2; type: cell-based, human; conditions: 300 μg/ml G418 or 200 nM Compound D
Method: (§5) It is known that amino acid starvation causes GCN2 activation, which phosphorylates eIF2α. Because GSPT1 mediates normal translation termination, it is hypothesized that depletion of GSPT1 by Compound D may cause readthrough of stop codons. Whether the translational readthrough induced by Compound D contributes to the increased levels of p-eIF2α was investigated. OCI-AML2 cells stably expressing the Fluc/Nluc-G36A readthrough reporter were treated with 300 μg/ml G418 or 200 nM Compound D for 2, 4, 6, 8, 10, 12, or 16 hours. The levels of p-eIF2α were measured by immunoblot analysis. AML2 readthrough assay was conducted to measure the readthrough reporter.

p-eIF2α = p-eIF2α immunoblot, OCI-AML2; type: cell-based, human; conditions: 300 μg/ml G418 or 200 nM Compound D
Method: as §5

IKZF1 = IKZF1 (Homo sapiens, UniProt Q13422+Q96SW2)
GSPT1 [5] = target: T1, GSPT1; assay: GSPT1 degradation in NB4 cell line; type: cell-based; set-up: endogenous in cells

T1 sequence (P15170 1-637 isoform P15170-3): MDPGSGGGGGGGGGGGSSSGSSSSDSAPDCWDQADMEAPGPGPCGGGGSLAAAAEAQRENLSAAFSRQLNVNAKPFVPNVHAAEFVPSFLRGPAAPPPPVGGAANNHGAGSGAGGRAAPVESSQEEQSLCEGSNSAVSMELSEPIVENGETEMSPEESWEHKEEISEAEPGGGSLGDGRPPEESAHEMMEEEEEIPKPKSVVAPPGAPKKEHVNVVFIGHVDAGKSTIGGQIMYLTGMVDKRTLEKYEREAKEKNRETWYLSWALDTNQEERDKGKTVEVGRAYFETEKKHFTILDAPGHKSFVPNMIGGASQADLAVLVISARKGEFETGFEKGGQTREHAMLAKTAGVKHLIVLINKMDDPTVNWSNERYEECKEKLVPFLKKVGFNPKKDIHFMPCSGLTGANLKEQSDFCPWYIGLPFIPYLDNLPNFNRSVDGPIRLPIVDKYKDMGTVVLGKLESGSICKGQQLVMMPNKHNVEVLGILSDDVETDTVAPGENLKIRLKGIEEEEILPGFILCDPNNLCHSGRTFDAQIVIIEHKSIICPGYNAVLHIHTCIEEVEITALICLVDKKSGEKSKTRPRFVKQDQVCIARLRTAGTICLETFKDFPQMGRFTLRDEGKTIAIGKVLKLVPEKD
T1 sequence (Q96SW2 whole entry): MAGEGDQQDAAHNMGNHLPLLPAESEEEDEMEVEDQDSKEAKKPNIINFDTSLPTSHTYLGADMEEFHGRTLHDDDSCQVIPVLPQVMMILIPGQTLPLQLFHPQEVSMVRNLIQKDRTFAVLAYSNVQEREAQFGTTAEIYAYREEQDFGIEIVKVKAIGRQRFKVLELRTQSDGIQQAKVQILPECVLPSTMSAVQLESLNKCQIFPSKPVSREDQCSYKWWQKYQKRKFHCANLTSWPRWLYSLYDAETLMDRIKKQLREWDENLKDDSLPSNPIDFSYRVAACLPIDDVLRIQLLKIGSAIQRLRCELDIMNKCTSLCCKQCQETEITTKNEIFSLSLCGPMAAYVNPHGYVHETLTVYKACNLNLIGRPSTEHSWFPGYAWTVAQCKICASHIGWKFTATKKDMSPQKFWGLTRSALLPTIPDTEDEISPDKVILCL
T1 sequence (Q16531 whole entry partner): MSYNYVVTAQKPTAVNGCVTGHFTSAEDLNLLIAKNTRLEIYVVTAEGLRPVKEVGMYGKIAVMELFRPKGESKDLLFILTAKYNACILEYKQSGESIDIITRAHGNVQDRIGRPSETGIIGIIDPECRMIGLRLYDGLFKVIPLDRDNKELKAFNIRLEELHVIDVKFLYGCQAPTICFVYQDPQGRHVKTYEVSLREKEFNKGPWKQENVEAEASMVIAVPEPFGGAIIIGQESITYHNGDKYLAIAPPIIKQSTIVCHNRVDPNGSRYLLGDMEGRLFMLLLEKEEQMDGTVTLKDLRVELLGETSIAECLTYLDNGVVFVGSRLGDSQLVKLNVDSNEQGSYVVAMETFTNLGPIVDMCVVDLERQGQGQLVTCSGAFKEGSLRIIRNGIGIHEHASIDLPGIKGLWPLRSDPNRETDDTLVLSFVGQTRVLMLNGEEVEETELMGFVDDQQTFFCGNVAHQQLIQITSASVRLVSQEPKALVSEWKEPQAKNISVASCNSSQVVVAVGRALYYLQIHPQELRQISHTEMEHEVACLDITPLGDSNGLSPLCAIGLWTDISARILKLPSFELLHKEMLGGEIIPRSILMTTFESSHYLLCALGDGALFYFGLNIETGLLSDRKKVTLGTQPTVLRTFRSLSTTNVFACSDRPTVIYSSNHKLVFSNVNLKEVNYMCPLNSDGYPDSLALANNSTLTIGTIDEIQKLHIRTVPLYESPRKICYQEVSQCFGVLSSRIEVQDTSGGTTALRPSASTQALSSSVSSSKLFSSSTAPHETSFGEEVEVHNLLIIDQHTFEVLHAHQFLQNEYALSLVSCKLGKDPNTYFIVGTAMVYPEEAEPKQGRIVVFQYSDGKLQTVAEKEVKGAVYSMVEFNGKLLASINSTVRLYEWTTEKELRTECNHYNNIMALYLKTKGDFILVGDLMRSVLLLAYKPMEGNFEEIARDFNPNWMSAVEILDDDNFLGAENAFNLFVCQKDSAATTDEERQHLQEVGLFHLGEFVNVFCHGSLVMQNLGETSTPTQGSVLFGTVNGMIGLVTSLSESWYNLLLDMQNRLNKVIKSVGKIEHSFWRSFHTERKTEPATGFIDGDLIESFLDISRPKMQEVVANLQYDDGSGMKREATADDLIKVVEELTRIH
Chain of IKZF1 (Q13422 whole entry): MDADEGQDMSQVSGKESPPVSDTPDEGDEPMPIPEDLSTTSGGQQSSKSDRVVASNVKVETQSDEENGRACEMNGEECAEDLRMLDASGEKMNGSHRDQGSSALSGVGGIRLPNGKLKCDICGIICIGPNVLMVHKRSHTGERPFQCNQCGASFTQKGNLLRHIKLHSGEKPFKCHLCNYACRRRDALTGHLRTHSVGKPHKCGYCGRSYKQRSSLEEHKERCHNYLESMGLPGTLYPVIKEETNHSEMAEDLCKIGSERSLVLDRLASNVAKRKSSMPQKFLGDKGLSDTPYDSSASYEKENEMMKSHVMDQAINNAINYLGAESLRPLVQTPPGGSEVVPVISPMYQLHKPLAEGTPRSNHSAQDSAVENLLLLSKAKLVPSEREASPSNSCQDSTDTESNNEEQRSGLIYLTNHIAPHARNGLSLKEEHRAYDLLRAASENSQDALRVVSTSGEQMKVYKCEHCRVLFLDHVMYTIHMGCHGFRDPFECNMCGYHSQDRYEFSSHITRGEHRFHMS
Chain of IKZF1 (Q96SW2 whole entry): as the sequence (Q96SW2 whole entry) above
Chain of IKZF1 (Q16531 whole entry partner): as the sequence (Q16531 whole entry partner) above

O=C1CCC(N2Cc3cc(CNC(=O)C(F)(F)c4ccc(F)cc4)ccc3C2=O)C(=O)N1 (stereo not shown) [Compound E, N-((2-(2,6-dioxopiperidin-3-yl)-1-oxoisoindolin-5-yl)methyl)-2,2-difluoro-2-(4-fluorophenyl)acetamide]
cell proliferation (CellTiter-Glo) (KG-1 cells): exhibited anti-proliferative effect, particularly at high concentration
anti-proliferative effect (MOLM-13 cells; MOLM13 CRBN -/- cells): completely abolished
cell proliferation (CellTiter-Glo) (MOLM-13 cells; MOLM13 parental cells, 0.001 μM to 10 μM): inhibited cell proliferation
anti-proliferative effect (U-937 cells; U937 CRBN -/- cells): completely abolished
cell proliferation (CellTiter-Glo) (U-937 cells; U937 parental cells, 0.001 μM to 10 μM): inhibited cell proliferation
cell proliferation (CellTiter-Glo) (OCI-AML3 cells): exhibited anti-proliferative effect, particularly at high concentration
level of ATF3, DDIT3, cleaved Caspase-3, cleaved Caspase-8, and cleaved PARP [1]: increased the level
expression of GSPT1 (GSPT1 [2]): decreased the expression of GSPT1
degradation of GSPT1 (GSPT1 [3]): induced degradation

CN[C@@H]1[C@@H](O)[C@@H](O[C@@H]2[C@@H](O)[C@H](O[C@H]3O[C@H]([C@@H](C)O)[C@@H](O)[C@H](O)[C@H]3N)[C@@H](N)C[C@H]2N)OC[C@]1(C)O [Compound G418, G418, reference compound]
translational readthrough [4]: induced translational readthrough at a comparable level
levels of p-eIF2α (p-eIF2α): little effect

Nc1cccc2c1C(=O)N(C1CCC(=O)NC1=O)C2=O (stereo not shown) [pomalidomide, reference compound]
effect on IKZF1 level (IKZF1): induced degradation of IKZF1 at much lower concentrations than Compound D
effect on GSPT1 level (GSPT1 [5]): no significant effect

— US12474342B2, “Methods for treating cancer and the use of biomarkers as a predictor of clinical sensitivity to therapies” (CELGENE CORPORATION, priority 2016, dated 2025)
